Experimental data published in patent US7772255B2, “Method of treating tumors with azaxanthones” (Supratek Pharma, Inc., priority 2005, dated 2010).
Where a name gives a salt, the structure may show the parent alone.

Assays:
[1] = Chemical stability of Amlexanox sodium salt solution (HPLC); assay type: physicochemical; settings: 20 mg Amlexanox sodium salt in 2 mL Tris buffer pH 7.2; 0.05 molar equivalent of the listed compound; 72 hours, ambient light, access to air; HPLC peak area
Procedure: 20 mg of crystalline Amlexanox sodium salt was dissolved in a clear glass test tube in 2 mL of Tris buffer, pH 7.2. For each of the stabilizing compounds listed in the Table below, 0.05 molar equivalent of the compound was added to the solution, mixed until dissolved, and left under ambient light, and with access to the air. Concentration of Amlexanox in the sample was determined by HPLC right after preparation, and after 72 hours. The chemical stability of Amlexanox was evaluated by comparison of area under the peak of amlexanox from the two analyses.

[2] = system: S100A4-positive CSML100 cells; experiment: Metastasis formation by S100A4-positive CSML100 cells in animal model (Example 6); assay type: in vivo, mouse; settings: 100 mg/kg i.v. daily for 10 days
Procedure: In both groups the injection volume was 5 ml/kg. The treatments were started from the day following the tumor cell implantation for 10 consecutive days. The animal body weight was recorded as an index of treatment toxicity during the experiment.
Starting from the day 10 after the cell implantation, one animal of the control group was sacrificed every day to monitor the metastasis development. All animals were sacrificed on day 18 for routine metastasis inspection. […] The metastatic colonies on the organ surface were enumerated immediately following the removal of the organ.
The data were expressed as mean±SEM for the number of metastatic sites.

[3] = system: colorectal cancer; experiment: Amlexanox in combination with irinotecan in colorectal cancer, first-line (Example 9); assay type: in vivo, human; settings: amlexanox tablets orally plus irinotecan 350 mg/m^2 i.v. every 3 weeks, versus irinotecan alone
Procedure: In this open label randomized multicenter study 150 patients with colorectal cancer who have tumors that cannot be completely removed by surgery are treated by administering irinotecan alone and 150 patients, with colorectal cancer who have tumors that cannot be completely removed by surgery, are treated with combination of irinotecan and 500 mg amlexanox daily with two amlexanox 250 mg tablets, prepared in Example 3, taken twice daily orally to provide a daily dose of […] of amlexanox. Irinotecan was administered to all of the patients at a dose of 350 mg/m^2 once every 3 weeks intravenously during the course of this study. […] In addition, in each of the treated patients, duration of overall response, time to overall response, duration of progression-free survival, overall clinical benefit rate, overall survival rate and quality of life are determined. […] The patients are evaluated by standard WHO and/or RECIST criteria for response and disease status at six week intervals. […] All of the patients during the evaluation period are evaluated by the measurement of the tumors, survival and determination of any progression of the disease in the patient. Stability is measured during each evaluation to determine if there is any increase in the size and amount of tumors from the proceeding period and if there is no subsequent appearance of any other malignancies in the patient. […]

[4] = system: CSML100 cells; experiment: CSML100 (murine mammary carcinoma) experimental metastasis model (Example 24); assay type: in vivo, mouse; settings: 100 mg/kg/day i.v., 10 daily injections
Procedure: Amlexanox solution for injections was prepared according to the Example 4. CSML100 cells were inoculated intravenously in 26 female A/J mice (6-7 weeks old). Animals were then divided randomly into two groups: 1) untreated control (n=16, saline) and 2) Amlexanox treated (n=10, 100 mg/kg/day, i.v.; 10 daily injections). The control group received i.v. injections with 5 ml/kg (volume/body weight) of saline, while Amlexanox was administrated intravenously daily with a dose of 100 mg/kg in a volume of 5 ml/kg. Treatment was started on the day following the day of tumor cell implantation and continued for 10 consecutive days. The animal body weight was recorded as an index of treatment toxicity during the experiment. From the day 10 after cell implantation, one animal in the control group was sacrificed every day to monitor the metastasis development. All remaining animals were sacrificed on the day 18 for routine metastasis inspection. Although all organs were routinely screened, metastatic formation was only found in the lungs. The metastatic colonies on the organ surface were enumerated immediately following the removal of the organ.
A maximum body weight loss in treated group was less than 10%. The data are expressed as mean±SEM for the number of metastatic sites on the lung surface.

[5] = system: B16F10/DX cells; experiment: B16 experimental metastasis model (Example 26); assay type: in vivo, mouse; settings: B16F10/DX i.v. in C57BL/6 mice; Amlexanox 100 mg/kg daily p.o.; mean±SEM
Procedure: Amlexanox solution for injections was prepared according to the Example 4. B16F10/DX cell (2.0×10^5 cells per animal) were inoculated intravenously in female C57BL//6 mice (6-7 weeks old) and animals were then divided randomly into 4 groups (n=9 except for control group): 1) intact control (n=12, saline); 2) Amlexanox (100 mg/kg, daily p.o. administration); 3) TPT (2.0 mg/kg i.v. administration on day 1, 4, and 7); 5) Amlexanox (daily p.o. 100 mg/kg)+TPT (i.v. 2.0 mg/kg on day 1, 4, and 7). Intact control received oral administration with 10 ml/kg (volume/body weight) of saline, while Amlexanox was administrated orally and daily with a dose of 100 mg/kg in a volume of 10 ml/kg. The treatments were started from the day following the tumor cell implantation until the end of the protocol. However, TPT was administrated intravenously only on day 1, 4, and 7 after tumor implantation. The animal body weight was recorded as an index of treatment toxicity during the experiment.
The data in Table show metastasis formation in the lung in the mice implanted with B16F10/DX cells. The data are expressed as mean±SEM for the number of metastatic sites on the lung surface.

[6] = CSML100 cells i.v. in female A/J mice, day 18, mean±SEM

SMILES | Retained Amlexnox [1] [%] | Average of lung metastasis number per animal [2, 6] | Trial/control × 100% ([2]; lung metastasis number, day 18) [%] | inhibition on metastases formation ([2]; mice inoculated CSML100 cells) | body weight loss ([2]; non-significant, A/J mice) | percentage of patients with beneficial results (overall response rate, progression-free survival, overall survival etc.) [3] | Average of lung metastasis number per animal (sample number) [4, 6] | Treated/control × 100% ([4]; lung metastasis number, day 18) [%] | maximum body weight loss ([4]; treated group, A/J mice) | Lung Metastasis Number per Animal [5]
CC(C)c1ccc2oc3nc(N)c(C(=O)O)cc3c(=O)c2c1 [Amlexanox (salt), 2-amino-7-isopropyl-1-azaxanthone-3-carboxylic acid sodium salt] | 93.8 | – | – | – | – | – | – | – | – | –
CC(C)c1ccc2oc3nc(N)c(C(=O)O)cc3c(=O)c2c1 [Amlexanox, 2-amino-7-isopropyl-1-azaxanthone-3-carboxylic acid] | – | 18.8 ± 2.3 | 48.5 | significant inhibition on metastases formation | less than 10% | greater percentage of the patients in the group of patients treated with the amlexanox show beneficial results | 18.8 ± 2.3 (9) | 48.5 | less than 10% | 71.3 ± 15.5
